Measured values taken from PMC7731379, “Withanolide-Type Steroids from Withania aristata as Potential Anti-Leukemic Agents” (Molecules, 2020).
Like-named read-outs stand apart in the source and are kept apart here.

Legend:
[1] = test system: HL-60 (human promyelocytic leukemia cell line); test: MTT cell viability (antiproliferative) assay, HL-60; details: for IC50: mean ± SD of three independent experiments; for SI (selectivity index): Vero (IC50) on HL-60 (IC50)
Method: (§1) HL-60 (human promyelocytic leukemia cell line) and Vero (African green monkey kidney) cell lines from American Type Culture Collection (ATCC-LGC) were each grown in Dulbecco’s modified Eagle’s medium (DMEM) with 4.5 g/L glucose (Sigma-Aldrich), supplemented with 10% fetal bovine serum (Gibco), 1% of a penicillin–streptomycin mixture (10.000 and 10 mg/mL, respectively), and 200 mM L-glutamine. Cells were maintained at 37 °C in 5% CO2 and 98% humidity.
(§2) Viable cells were assessed using the colorimetric MTT [3-(4,5-dimethylthiazol-2-yl)-2,5-diphenyl tetrazolium bromide reduction assay [49]. A cell suspension (1 × 10^4 /200 μL/well) in log-phase of growth seeded in DMEM, supplemented with 5% fetal bovine serum in microtiter well plates (96 wells, Iwaki, London, UK) were added to compounds predissolved in dimethylsulphoxide (DMSO) at different concentrations. After 48 h of incubation, 20 μL/well of the MTT solution (5 mg/mL in phosphate buffered saline, PBS) were added and plates incubated for 4 h at 37 °C. Subsequently, the medium/MTT solutions were removed carefully by aspiration and replaced with 150 μL/well of DMSO to dissolve the formazan crystals. Absorbance was measured in a microplate reader (Infinite M200, Tecan) at a wavelength of 550 nm. Solvent control cultures were considered 100% and percentage of viable treated cells were plotted against compound concentrations. The 50% cell viability value (IC50) was calculated from the curve. Each experiment was performed at least three times in triplicates. Data are given in arithmetic means ± SD. Selectivity ratio was defined as IC50 value for the tumoral cell line divided by IC50 value for the Vero cell line.

in vitro = details: African green monkey
Method: as §1, §2

[2] = test system: Vero (African green monkey kidney) cell line; test: MTT cell viability assay, non-tumoral Vero cells; details: read-out: Cytotoxic activity IC50, Vero; MTT, 48 h incubation; mean ± SD of three independent experiments
Method: as §1, §2

[3] = MTT cell viability assay, non-tumoral Vero cells; details: African green monkey, Vero cells (African green monkey kidney, non-tumoral)
Method: as §1, §2

[4] = test system: HL-60 (human promyelocytic leukemia cell line); details: 48 h
Method: as §1, §2

[5] = test system: Vero (African green monkey kidney) cell line; details: 48 h
Method: as §1, §2

[6] = Homo sapiens, HL-60, 48 h, read-out: Cytotoxic activity IC50, HL 60, MTT, 48 h incubation
[7] = read-out: Cytotoxic activity IC50, HL 60, MTT, 48 h incubation
[8] = Cytotoxic activity IC50, Vero, MTT, 48 h incubation, mean ± SD of three independent experiments

## CC1=C(CO)C(=O)OC(C(C)C2CCC3C4CC(O)C5(O)C(O)C=CC(=O)C5(C)C4CCC23C)C1 (stereo not shown) [Compound 26, 2,3-dehydrosomnifericin]
[1]; [6]
  IC50: 13.4 ± 0.85 µM
[1]
  SI (selectivity index): >3.0
In vitro; Cytotoxic activity IC50, Vero
  IC50 at 48 h: > 40 µM

## CC1=C(CO)C(=O)OC(C(C)C2(O)CCC3C4CC(O)C56C=CC(OO5)C(=O)C6(C)C4CCC32C)C1 (stereo not drawn) [Compound 2, 6β,17α,27-Trihydroxy-2β,5β-dioxan-1-oxo-witha-3,24-dien-26,22-olide]
[1]
  SI (selectivity index): >1.5
[1]; [7]
  IC50: 26.7 ± 0.6 µM
[2]
  IC50: > 40 µM

## CC1=C(CO)C(=O)OC(C(C)C2CCC3C4CC(O)C5(C=O)CCC(=O)C5(C)C4CCC23C)C1 (stereo not drawn) [Compound 29, 4β-formyl-6β,27-dihydroxy-1-oxo-witha-24-enolide]
[1]; [6]
  IC50: 19.2 ± 0.84 µM
[1]
  SI (selectivity index): >2.1
[3]; [8]
  IC50 at 48 h: > 40 µM

## CC1=C(CO)C(=O)OC(C(C)C2CCC3C4CC(O)C5(C=O)C=CC(=O)C5(C)C4CCC23C)C1 (stereo not drawn) [Compound 28, 4β-formyl-6β,27-dihydroxy-1-oxo-witha-2,24-dienolide]
[1]; [6]
  IC50: 30.5 ± 0.45 µM
[1]
  SI (selectivity index): >1.3
[3]
  IC50 at 48 h: > 40 µM

## CC(=O)OCC1=C(C)CC(C(C)C2CCC3C4CC5OC56C(O)C(O)CC(=O)C6(C)C4CCC23C)OC1=O (stereo not shown) [Compound 25, 27-O-acetyl-viscosalactone B]
[1]; HL-60 cytotoxic effect, versus 24
  fold more potent than its corresponding hydroxyl derivative 24: 26 fold
[1]; [6]
  IC50: 1.5 ± 0.54 µM
[1]
  SI (selectivity index): 7.9
In vitro; Cytotoxic activity IC50, Vero
  IC50 at 48 h: 11.8 ± 0.1 µM

## CC1=C(CO)C(=O)OC(C(C)C2(O)CCC3C4CC=C5C(O)C=CC(=O)C5(C)C4CCC32C)C1 (stereo not drawn) [Compound 12, 4α,17α,27-trihydroxy-1-oxo-witha-2,5,24-trienolide]
[1]; HL-60, versus 13
  fold more potent than the β-disposition (13): 2 fold
[1]; [6]
  IC50: 6.6 ± 0.14 µM
[1]
  SI (selectivity index): >6.1
In vitro; Cytotoxic activity IC50, Vero
  IC50 at 48 h: > 40 µM

## 16β,27-dihydroxy-1,4-dioxo-witha-2,5,17(20),24-tetraenolide [Compound 11]
[1]
  SI (selectivity index): >1.4
[1]; [7]
  IC50: 27.8 ± 0.45 µM
[2]
  IC50: > 40 µM

## CC1=C(CO)C(=O)OC(C(C)C2CCC3C4CC(Cl)C5(O)C(O)C=CC(=O)C5(C)C4CCC23C)C1 (stereo not drawn) [Compound 27, 6α-chloro-5β-hydroxywithaferin A]
[1]; HL-60 cytotoxic effect, versus 26
  fold more potent than its corresponding hydroxyl derivative 26: 12 fold
[1]; [6]
  IC50: 1.1 ± 0.2 µM
[1]
  SI (selectivity index): 7.1
In vitro; Cytotoxic activity IC50, Vero
  IC50 at 48 h: 7.8 ± 0.36 µM

## CC1=C(C)C(=O)OC(C(C)C2CCC3C4CC5OC56C(O)C=CC(=O)C6(C)C4CCC23C)C1 (stereo not drawn) [Compound 15, 5β,6β-epoxy-4β-hydroxy-1-oxo-witha-2,24-dienolide]
[1]; [6]
  IC50: ≤ 0.5 µM
[4]
  IC50: 0.5 ± 0.07 µM
In vitro; Cytotoxic activity IC50, Vero
  IC50 at 48 h: 4.6 ± 0.09 µM

## CC1=C(CO)C(=O)OC(C(C)=C2C(O)CC3C4CC5OC56C(O)C=CC(=O)C6(C)C4CCC23C)C1 (stereo not drawn) [Compound 18, 5β,6β-epoxy-4β,16β,27-trihydroxy-1-oxo-witha-2,17(20),24-trienolide]
[1]; [6]
  IC50: 8.2 ± 0.43 µM
[1]
  SI (selectivity index): 4.2
In vitro; Cytotoxic activity IC50, Vero
  IC50 at 48 h: 34.7 ± 0.75 µM

## CC1=C(C)C(=O)OC(C(C)C2CC=C3C4CC5OC56C(O)C=CC(=O)C6(C)C4CCC32C)C1 (stereo not drawn) [Compound 21, 5β,6β-epoxy-4β-hydroxy-1-oxo-22R-witha-2,14,24-trienolide]
[1]; [6]
  IC50: 0.9 ± 0.05 µM
[1]
  SI (selectivity index): 6.9
In vitro; Cytotoxic activity IC50, Vero
  IC50 at 48 h: 6.2 ± 0.11 µM

## CC1=C(CO)C(=O)OC(C(C)C2CCC3C4CC(O)C56C=CC(OO5)C(=O)C6(C)C4CCC23C)C1 (stereo not drawn) [Compound 3, 6β,27-Dihydroxy-2α,5α-dioxan-1-oxo-witha-3,24-dien-26,22-olide]
[1]; [6]
  IC50: 3.3 ± 0.45 µM
[1]
  SI (selectivity index): 4.9
[3]; [8]
  IC50 at 48 h: 16 ± 0.73 µM

## CC(=O)OCC1=C(C)CC(C(C)C2CCC3C4CC5OC56C(O)C=CC(=O)C6(C)C4CCC23C)OC1=O (stereo not shown) [Compound 16, 27-acetyl-withaferin A]
[1]; [6]
  IC50: ≤ 0.5 µM
[4]
  IC50: 0.4 ± 0.06 µM
In vitro; Cytotoxic activity IC50, Vero
  IC50 at 48 h: 5.7 ± 0.13 µM

## CC1=C(CO)C(=O)O[C@@H]([C@@H](C)[C@H]2CC[C@H]3[C@@H]4C[C@H]5O[C@]56[C@@H](O)C=CC(=O)[C@]6(C)[C@H]4CC[C@]23C)C1 [Compound 14, withaferin A]
[1]
  SI (selectivity index): 33.0
[1]; [7]
  IC50: 0.2 ± 0.02 µM
[1]; read-out: Cytotoxic activity IC50, HL 60, MTT, 48 h incubation, listed as WA
  IC50: ≤ 0.5 µM
[3]; [8]
  IC50 at 48 h: 6.4 ± 0.21 µM

## CC1=C(CO)C(=O)OC(C(C)C2=CCC3C4CC=C5C(O)C=CC(=O)C5(C)C4CCC23C)C1 (stereo not drawn) [Compound 5, 4β,27-dihydroxy-1-oxo-witha-2,5,16,24-tetraenolide]
[1]; [6]
  IC50: 8.2 ± 0.09 µM
[1]
  SI (selectivity index): 0.8
In vitro; Cytotoxic activity IC50, Vero
  IC50 at 48 h: 6.4 ± 0.12 µM

## CC1=C(C)C(=O)OC(C(C)C2=CCC3C4CC=C5C(O)C=CC(=O)C5(C)C4CCC23C)C1 (stereo not drawn) [Compound 6, 4β-hydroxy-1-oxo-witha-2,5,16,24-tetraenolide]
[1]; [6]
  IC50: 7 ± 0.55 µM
[1]
  SI (selectivity index): 1.6
In vitro; Cytotoxic activity IC50, Vero
  IC50 at 48 h: 11.5 ± 0.09 µM

## CC1=C(CO)C(=O)OC(C(C)C2=CCC3C4CC=C5C(=O)C=CC(=O)C5(C)C4CCC23C)C1 (stereo not shown) [Compound 8, 27-hydroxy-1,4-dioxo-witha-2,5,16,24-tetraenolide]
[1]; [6]
  IC50: 4.2 ± 0.25 µM
[1]
  SI (selectivity index): 3.7
In vitro; Cytotoxic activity IC50, Vero
  IC50 at 48 h: 15.5 ± 0.35 µM

## 4β,16β,27-trihydroxy-1-oxo-witha-2,5,17(20),24-tetraenolide [Compound 9]
[1]
  SI (selectivity index): 1.7
[1]; [7]
  IC50: 14.8 ± 0.68 µM
[2]
  IC50: 25.7 ± 0.65 µM

## CC1=C(CO)C(=O)OC(C(C)C2(O)CCC3C4CC5OC56C(O)C=CC(=O)C6(C)C4CCC32C)C1 (stereo not drawn) [Compound 23, 5β,6β-epoxy-4β,17α,27-trihydroxy-1-oxo-witha-2,24-dienolide]
[1]; [6]
  IC50: 6.5 ± 0.55 µM
[1]
  SI (selectivity index): >6.2
In vitro; Cytotoxic activity IC50, Vero
  IC50 at 48 h: > 40 µM

## CC1=C(CO)C(=O)OC(C(C)C2=CCC3C4CC(O)C56C=CC(OO5)C(=O)C6(C)C4CCC23C)C1 (stereo not drawn) [Compound 4, 6β,27-Dihydroxy-2α,5α-dioxan-1-oxo-witha-3,16,24-trien-26,22-olide]
[1]; [6]
  IC50: 6.2 ± 0.1 µM
[1]
  SI (selectivity index): 5.1
[3]; [8]
  IC50 at 48 h: 31.6 ± 0.08 µM

## CC1=C(CO)C(=O)OC(C(C)C2CCC3C4CC=C5C(O)C=CC(=O)C5(C)C4CCC23C)C1 (stereo not drawn) [Compound 7, 4β,27-dihydroxy-1-oxo-witha-2,5,24-trien olide]
[1]; [6]
  IC50: 15.7 ± 0.04 µM
[1]
  SI (selectivity index): >2.6
In vitro; Cytotoxic activity IC50, Vero
  IC50 at 48 h: > 40 µM

## CC1=C(C)C(=O)OC(C(C)C2=CCC3C4CC5OC56C(O)C=CC(=O)C6(C)C4CCC23C)C1 (stereo not shown) [Compound 20, 27-deoxy-16-en-withaferin A]
[1]; [6]
  IC50: 4.6 ± 0.35 µM
[1]
  SI (selectivity index): 2.2
In vitro; Cytotoxic activity IC50, Vero
  IC50 at 48 h: 10 ± 0.61 µM

## 4β,16β-dihydroxy-1-oxo-witha-2,5,17(20),24-tetraenolide [Compound 10]
[1]
  SI (selectivity index): >2.4
[1]; [7]
  IC50: 16.8 ± 0.75 µM
[2]
  IC50: > 40 µM

## CC1=C(CO)C(=O)OC(C(C)C2(O)CCC3C4CC=C5C(O)C=CC(=O)C5(C)C4CCC32C)C1 (stereo not drawn) [Compound 13, 4β,17α,27-trihydroxy-1-oxo-witha-2,5,24-trienolide]
[5]
  IC50: 23.8 ± 0.41 µM
[1]
  SI (selectivity index): 1.9
[4]
  IC50: 12.3 ± 0.11 µM

## CC1=C(CO)C(=O)OC(C(C)C2(O)CCC3C4CC(O)C56C=CC(OO5)C(=O)C6(C)C4CCC32C)C1 (stereo not drawn) [Compound 1, 6β,17α,27-Trihydroxy-2α,5α-dioxan-1-oxo-witha-3,24-dien-26,22-olide]
[1]
  SI (selectivity index): >3.1
[1]; [7]
  IC50: 12.8 ± 0.24 µM
[3]
  IC50 at 48 h: > 40 µM

## CC1=C(CO)C(=O)O[C@@H]([C@@H](C)C2=CC[C@H]3[C@@H]4C[C@H]5O[C@]56[C@@H](O)C=CC(=O)[C@]6(C)[C@H]4CC[C@]23C)C1 [Compound 19, witharistatin]
[1]; [6]
  IC50: ≤ 0.5 µM
[1]
  SI (selectivity index): 3.8
[4]
  IC50: 0.5 ± 0.05 µM
In vitro
  IC50 at 48 h: 1.9 ± 0.08 µM

## CC1=C(CO)C(=O)OC(C(C)C2CCC3C4CC5OC56C(=O)C=CC(=O)C6(C)C4CCC23C)C1 (stereo not shown) [Compound 22, 4-dehydro-withaferin A]
[1]; [6]
  IC50: 0.7 ± 0.09 µM
[1]
  SI (selectivity index): 24.1
In vitro; Cytotoxic activity IC50, Vero
  IC50 at 48 h: 16.9 ± 0.7 µM

## CC1=C(CO)C(=O)O[C@@H]([C@@H](C)[C@H]2CC[C@H]3[C@@H]4C[C@H]5O[C@]56[C@@H](O)[C@@H](O)CC(=O)[C@]6(C)[C@H]4CC[C@]23C)C1 [Compound 24, viscosalactone B]
[1]; [6]
  IC50: > 40 µM
[3]; [8]
  IC50 at 48 h: > 40 µM

## COc1cc([C@@H]2c3cc4c(cc3[C@@H](O[C@@H]3O[C@@H]5CO[C@@H](C)O[C@H]5[C@H](O)[C@H]3O)[C@H]3COC(=O)[C@H]23)OCO4)cc(OC)c1O [Etoposide, reference compound]
[1]; [6]
  IC50: 2.4 ± 0.1 µM
[1]
  SI (selectivity index): 8.2
[3]; [8]
  IC50 at 48 h: 19.5 ± 0.16 µM
